Experimental data published in US10065990B2, “Cyclic peptide compound, and preparation method, pharmaceutical composition and use thereof” (HANGZHOU GUANYU BIO-MEDICAL CO., LTD, priority 2013, dated 2018).
Read-outs that look alike come from different tables or passages of the source.

Experiments:
[1] = test system: HCC827 (human non-small cell lung cancer cells); assay: MTT cancer cell growth inhibition; format: cell-based; details: Homo sapiens, HCC827, 72 h, MTT, 72 hours incubation, HCC827 cells; read-out: GI50 HCC827
Description: (§1) MTT assay principle is yellow MTT can penetrate membrane into the cell, succinic dehydrogenase of the mitochondria in living cells can make exogenous MTT reduction of insoluble in water of blue-violet acicular formazan for crystallization and deposition in the cell, crystallization can be dissolved dimethyl sulfoxide (DMSO) solution, detected its absorbance at 490 nm/570 nm wavelength by enzyme-linked immunosorbent assay, which can reflect the number of cells.
(§2) Using DMEM+10% FBS culture medium or using 1640+10% FBS culture, respectively.
(§3) a) Cells were seeded in 96-well plates with the inoculation of 1500/well, 190 μl/hole, 37° C., 5% of CO2 incubator overnight;
(§4) b) The next day each well was added 10 μl of different drugs. The final concentration of drug was 10^−5˜10^−10M, three parallel holes; 37° C., 5% CO2 culture incubator for 72 hours incubation;
(§5) c) Per well was added 20 μl 5 mg/ml of MTT, 37° C., 5% CO2 culture incubator for 4 hours incubation;
(§6) d) The supernatant was discarded. Each well was added 100 μl of DMSO and oscillation;
(§7) e) 570 nm readings. Calculate cell viability. GI50 calculation based on the results.

[2] = test system: Huh-7 (human hepatoma cells); assay: MTT cancer cell growth inhibition; format: cell-based; details: Homo sapiens, Huh-7, 72 h, MTT, 72 hours incubation, Huh-7 cells; read-out: GI50 Huh-7
Description: as §1, §2, §3, §4, §5, §6, §7

[3] = test system: BGC-823 (human gastric cancer cells); assay: MTT cancer cell growth inhibition; format: cell-based; details: Homo sapiens, BGC-823, 72 h, MTT, 72 hours incubation, read-out: GI50 BG
Description: as §1, §2, §3, §4, §5, §6, §7

[4] = test system: H1975 (non-small cell lung adenocarcinoma); assay: MTT cancer cell growth inhibition; format: cell-based; details: Homo sapiens, NCI-H1975, 72 h, MTT, 72 hours incubation, H1975 cells; read-out: GI50 H1975
Description: as §1, §2, §3, §4, §5, §6, §7

[5] = test system: U937 (human leukemia cells); assay: MTT cancer cell growth inhibition; format: cell-based; details: Homo sapiens, U-937, 72 h, MTT, 72 hours incubation, read-out: GI50 U93
Description: as §1, §2, §3, §4, §5, §6, §7

[6] = test system: MDA-MB-231 (breast cancer cells); assay: MTT cancer cell growth inhibition; format: cell-based; details: Homo sapiens, MDA-MB-231, 72 h, read-out: GI50 MDA-MB-231, MTT, 72 hours incubation, MDA-MB-231 cells
Description: as §1, §2, §3, §4, §5, §6, §7

[7] = test system: KBM5-T315I (human chronic myelogenous leukemia); assay: MTT cancer cell growth inhibition; format: cell-based; details: Homo sapiens, 72 h, MTT, 72 hours incubation, KBM5-T315I cells; read-out: GI50 KBM5-T315I
Description: as §1, §2, §3, §4, §5, §6, §7

[8] = test system: PANC-1 (Pac-1, human pancreatic cancer cells); assay: MTT cancer cell growth inhibition; format: cell-based; details: Homo sapiens, PANC-1, 72 h, MTT, 72 hours incubation, read-out: GI50 PAN
Description: as §1, §2, §3, §4, §5, §6, §7

[9] = test system: Hela (human cervical cancer cells); assay: MTT cancer cell growth inhibition; format: cell-based; details: Homo sapiens, HeLa, 72 h, MTT, 72 hours incubation, read-out: GI50 Hela
Description: as §1, §2, §3, §4, §5, §6, §7

[10] = test system: K562 (human leukemia cells); assay: MTT cancer cell growth inhibition; format: cell-based; details: Homo sapiens, K562, 72 h, MTT, 72 hours incubation, K562 cells; read-out: GI50 K562
Description: as §1, §2, §3, §4, §5, §6, §7

[11] = test system: A549 (human lung cancer cells); assay: MTT cancer cell growth inhibition; format: cell-based; details: Homo sapiens, A549, 72 h, MTT, 72 hours incubation, read-out: GI50 A54
Description: as §1, §2, §3, §4, §5, §6, §7

[12] = test system: MCF-7 (human breast cancer cells); assay: MTT cancer cell growth inhibition; format: cell-based; details: Homo sapiens, MCF7, 72 h, 72 hours incubation, read-out: GI50 MCF
Description: as §1, §2, §3, §4, §5, §6, §7

[13] = test system: HT1080 (human fibrosarcoma cells); assay: MTT cancer cell growth inhibition; format: cell-based; details: Homo sapiens, HT-1080, 72 h, MTT, 72 hours incubation, read-out: GI50 HT1
Description: as §1, §2, §3, §4, §5, §6, §7

[14] = test system: SGC-7901 (human gastric cancer cells); assay: MTT cancer cell growth inhibition; format: cell-based; details: Homo sapiens, SGC-7901, 72 h, MTT, 72 hours incubation, SGC-7901 cells; read-out: GI50 SGC-7901
Description: as §1, §2, §3, §4, §5, §6, §7

[15] = test system: Bel-7402 (human hepatoma cells); assay: MTT cancer cell growth inhibition; format: cell-based; details: Homo sapiens, Bel-7402, 72 h, MTT, 72 hours incubation, Bel-7402 cells; read-out: GI50 Bel-7402
Description: as §1, §2, §3, §4, §5, §6, §7

[16] = test system: N-87 (human gastric cancer cells); assay: MTT cancer cell growth inhibition; format: cell-based; details: Homo sapiens, 72 h, MTT, 72 hours incubation, N-87 cells; read-out: GI50 N-87
Description: as §1, §2, §3, §4, §5, §6, §7

[17] = test system: DU145 (human prostate cancer cells); assay: MTT cancer cell growth inhibition; format: cell-based; details: Homo sapiens, DU-145, 72 h, MTT, 72 hours incubation, read-out: GI50 Du1
Description: as §1, §2, §3, §4, §5, §6, §7

[18] = test system: lncap (prostate cancer cells); assay: MTT cancer cell growth inhibition; format: cell-based; details: Homo sapiens, LNCaP, 72 h, MTT, 72 hours incubation, read-out: GI50 lnca
Description: as §1, §2, §3, §4, §5, §6, §7

[19] = test system: MOLT-4 (human acute lymphoblastic leukemia cells); assay: MTT cancer cell growth inhibition; format: cell-based; details: Homo sapiens, MOLT-4, 72 h, MTT, 72 hours incubation, read-out: GI50 Mol
Description: as §1, §2, §3, §4, §5, §6, §7

[20] = test system: KBM-5 (human chronic myelogenous leukemia); assay: MTT cancer cell growth inhibition; format: cell-based; details: Homo sapiens, KBM5, 72 h, MTT, 72 hours incubation, KBM-5 cells; read-out: GI50 KBM-5
Description: as §1, §2, §3, §4, §5, §6, §7

HDAC7 = molecular target: T1, HDAC7 (Homo sapiens, UniProt Q8WUI4); assay: HDAC biochemical activity measurement (fluorescent substrate deacetylation);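 for all read-outs here: fluorogenic deacetylation assay using acetyl-lysine substrate at 20 µM, enzyme and compound incubated 30 min at 37 °C, then developer added, fluorescence read at 360/460 nm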; details: for IC50 HDAC7: 37° C. 30 minutes
T1 sequence (Q8WUI4 1-952): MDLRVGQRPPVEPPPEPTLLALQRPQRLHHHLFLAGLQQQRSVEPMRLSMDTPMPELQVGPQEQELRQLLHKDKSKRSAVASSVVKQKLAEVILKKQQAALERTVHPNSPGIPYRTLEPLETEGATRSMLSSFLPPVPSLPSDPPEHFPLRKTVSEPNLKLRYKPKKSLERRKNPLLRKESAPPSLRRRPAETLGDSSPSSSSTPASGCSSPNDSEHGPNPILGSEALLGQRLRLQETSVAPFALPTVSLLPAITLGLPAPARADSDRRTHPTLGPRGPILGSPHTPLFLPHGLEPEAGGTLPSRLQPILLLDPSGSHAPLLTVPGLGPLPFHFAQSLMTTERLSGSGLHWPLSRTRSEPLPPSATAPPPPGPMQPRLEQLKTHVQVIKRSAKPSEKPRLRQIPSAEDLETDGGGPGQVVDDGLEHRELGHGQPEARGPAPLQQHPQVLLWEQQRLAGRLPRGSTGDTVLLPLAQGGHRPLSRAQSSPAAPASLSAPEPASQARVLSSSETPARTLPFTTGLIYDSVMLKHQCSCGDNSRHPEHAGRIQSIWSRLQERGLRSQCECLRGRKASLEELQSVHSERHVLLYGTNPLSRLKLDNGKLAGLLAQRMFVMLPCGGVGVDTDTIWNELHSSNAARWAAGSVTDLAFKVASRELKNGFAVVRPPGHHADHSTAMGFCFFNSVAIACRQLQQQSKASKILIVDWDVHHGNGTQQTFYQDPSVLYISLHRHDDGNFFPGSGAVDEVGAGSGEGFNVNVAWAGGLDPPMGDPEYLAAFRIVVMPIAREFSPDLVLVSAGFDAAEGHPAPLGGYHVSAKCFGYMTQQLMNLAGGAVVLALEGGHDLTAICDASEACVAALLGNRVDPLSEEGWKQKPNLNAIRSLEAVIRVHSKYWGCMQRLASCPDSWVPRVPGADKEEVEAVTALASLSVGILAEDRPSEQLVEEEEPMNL

SMILES	GI50 [1] [µM]	GI50 [2] [µM]	GI50 [4] [µM]	GI50 [6] [µM]	GI50 [7] [µM]	GI50 [10] [µM]	GI50 [14] [µM]	GI50 [15] [µM]	GI50 [16] [µM]	GI50 [20] [µM]	IC50 HDAC7 (HDAC7)	GI50 ([3]; BGC-823 cells) [µM]	GI50 ([5]; U937 cells) [µM]	GI50 ([8]; PANC-1 cells) [µM]	GI50 ([9]; Hela cells) [µM]	GI50 ([11]; A549 cells) [µM]	GI50 ([12]; MCF-7 cells) [µM]	GI50 ([13]; HT1080 cells) [µM]	GI50 ([17]; DU145 cells) [µM]	GI50 ([18]; lncap cells) [µM]	also measured
C/C=C1\NC(=O)c2cc(F)cc(n2)CNC(=O)C[C@@H](/C=C/CCSC(C)=O)OC(=O)[C@H](CCCCN)NC1=O [Example 73]	0.052	0.035	0.037	0.035	0.024	0.035	0.028	0.052	0.038	0.086	no activity	–	–	–	–	–	–	–	–	–	GI50 [3]: 0.03 µM; GI50 [5]: 0.03 µM; GI50 [8]: 0.05 µM; GI50 [9]: 0.08 µM; GI50 [11]: 0.02 µM; GI50 [12]: 0.02 µM; GI50 [13]: 0.05 µM; GI50 [17]: 0.03 µM; GI50 [18]: 0.03 µM; GI50 [19]: 0.03 µM
C/C=C1\NC(=O)c2ccc(SC)c(n2)CNC(=O)C[C@@H](/C=C/CCS)OC(=O)[C@H](CC)NC1=O [Compound 231]	0.077	0.048	0.025	0.025	0.057	0.037	0.011	0.058	0.036	0.038	no activity	0.01	0.08	0.01	0.04	0.06	0.08	0.03	0.05	0.03	GI50 ([19]; MOLT-4 cells): 0.05 µM
C/C=C1\NC(=O)c2ccc(SCC)c(n2)CNC(=O)C[C@@H](/C=C/CCSC(=O)CCCCCCC)OC(=O)[C@H](C(C)C)NC1=O [Compound 249]	0.023	0.043	0.076	0.029	0.027	0.072	0.033	0.041	0.045	0.047	–	0.03	0.07	0.02	0.08	0.05	0.07	0.04	0.03	0.04	GI50 ([19]; MOLT-4 cells): 0.05 µM; IC50 (μM) HDAC7 (HDAC7): no activity
CSc1ccc2nc1C(=O)NC(=C(C)C)C(=O)N[C@@H](C(C)C)C(=O)O[C@H](/C=C/CCSC(C)=O)CC(=O)NC2 [Compound 207]	0.055	0.033	0.046	0.079	0.021	0.048	0.057	0.027	0.019	0.038	no activity	0.03	0.04	0.05	0.02	0.03	0.04	0.03	0.03	0.05	GI50 ([19]; MOLT-4 cells): 0.01 µM
